Assay results published in the NIST ThermoML archive (doi:10.1016/j.jct.2010.11.003).
Where “and” joins values, the source holds several entries; their conditions need not be identical. Equal values may be shown once.

Test: mn = molality of the nth substance listed, in mol/kg
Conditions: 101 kPa, Liquid; for speed of sound: Sing-around technique in a fixed-path interferometer; for mass density: Vibrating tube method; for viscosity: Capillary tube (Ostwald / Ubbelohde) method

O=C([O-])CC(O)(CC(=O)[O-])C(=O)[O-].[K+].[K+].[K+] [potassium citrate] + O
Conditions	mass density, 293.15 K [kg/m3]	mass density, 298.15 K [kg/m3]	mass density, 303.15 K [kg/m3]	speed of sound, 293.15 K [m/s]	speed of sound, 298.15 K [m/s]	speed of sound, 303.15 K [m/s]	viscosity, 298.15 K	viscosity, 303.15 K [mPa·s]
m1 = 0.0472	1007.81	1006.59	1005.15	1492.8	1506.6	1518.1	1.027 mPa·s and 0.911 mPa·s	0.821
m1 = 0.0566	1009.7	1008.46	1007.02	1494.6	1508.5	1519.9	0.918 mPa·s and 1.027 mPa·s	0.822
m1 = 0.066	1011.58	1010.33	–	1496.5	1510.3	1521.7	0.924 mPa·s and 1.029 mPa·s	0.825
m1 = 0.0754	1013.45	1012.19	–	1498.3	1512	1523.5	0.93 mPa·s and 1.033 mPa·s	0.832
m1 = 0.0849	1015.34	1014.06	–	1500.2	1513.9	1525.3	0.935 mPa·s and 1.037 mPa·s	0.837
m1 = 0.0943	1017.2	1015.89	–	1502.1	1515.7	1527	0.942 mPa·s and 1.041 mPa·s	0.843
m1 = 0.2984	1055.65	1054.02	–	1540.4	1552.8	1563.6	1.065 mPa·s and 1.132 mPa·s	0.956
m1 = 0.3971	1073.05	1071.35	–	1558.2	1570.1	1580.3	1.13 mPa·s and 1.183 mPa·s	1.016
m1 = 0.4955	1089.85	1088.07	–	1576	1587	1596.8	1.2 mPa·s and 1.238 mPa·s	1.08
m1 = 0.5936	1106.03	1104.21	–	1593.3	1603.8	1613.3	1.274 mPa·s and 1.295 mPa·s	1.145
m1 = 0.7877	1136.49	1134.65	–	1626.4	1636.2	1644.5	1.423 mPa·s and 1.441 mPa·s	1.295
m1 = 0.9823	1165.2	1163.14	–	1658.6	1667.5	1674.8	1.575 mPa·s and 1.624 mPa·s	1.458
m1 = 1.175	1191.92	1189.77	–	1689.6	–	1697.5	1.733 mPa·s and 1.837 mPa·s	1.647
m1 = 1.366	1216.69	1214.46	–	1718.7	–	1725.7	1.92 mPa·s and 2.072 mPa·s	1.853
m1 = 1.555	1239.9	1237.68	–	1746.2	–	1752.6	2.121 mPa·s and 2.334 mPa·s	2.085
m1 = 1.837	1272.28	1269.96	–	1784.9	–	1790.3	2.476 mPa·s and 2.788 mPa·s	2.484
